The subject of series [1] is MDA MB-231 human breast cancer cells. The series can be described thus: Cell cycle analysis by flow cytometry (Vindelov method). It counts as cell-based. The settings on record: for Effect on cell cycle (G0/G1 arrest), in words: procyanidin-treated MDA MB-231 cells, see Table 1; for Increase in G0/G1 arrest, synthetic compared to natural procyanidin: see Table 2. How it is done: The MDA MB-231 cell line was P53 defective, ER negative, and constitutively expressed K-ras. Cells were cultured in T-75s in IMEM medium (BioFluids Inc.) supplemented with 10% FBS (Gibco BRL Life Technologies) in a humidified 5% CO2 atmosphere at 37° C. […] See Vindelov, L. et al., “A Detergent Trypsin Method for the Preparation of Nuclei for Flow Cytometric DNA Analysis”, Cytometry, 1983, 3, 323–327. Analyses were performed by the Lombardi Cancer Center Flow Cytometry Core Facility at Georgetown University Medical Center.
(In general: In flow cytometry, cells or beads pass a laser one at a time.)

Series [2] concerns human breast cancer cell lines. The series can be described thus: Cytotoxicity assay (microculture tetrazolium assay modified for crystal violet). It counts as cell-based. As to the method:
The human breast cancer cell lines MCF-7, SKBR-3, MDA 435, and MDA MB-231 were obtained from the Lombardi Cancer Center Cell Culture Core Facility at Georgetown University Medical Center. The MDA MB-231 cell line was P53 defective, ER negative, and constitutively expressed K-ras. Cells were cultured in T-75s in IMEM medium (BioFluids Inc.) supplemented with 10% FBS (Gibco BRL Life Technologies) in a humidified 5% CO2 atmosphere at 37° C.
Cytotoxicity assays were performed on several human breast cancer cell lines treated with test compounds in a 96 well microtiter plate format using the microculture tetrazolium assay^28 modified for use with crystal violet rather than MTT. Briefly, 1–2×10^3 cells were added per well and allowed to culture in a humidified, 5% CO2 atmosphere until they reached approximately 50% confluence. Sterile filtered test compounds were added at various concentrations, and the plates were allowed to culture for an additional 12–36 hours. The growth medium was then removed, and each well was washed twice with 200 μL each of pH 7.4 PBS. […] At the end of 1 hour, the plates were scanned at 570 nm (ref. 405 nm) with a Molecular Devices Corporation microtiter plate reader, and the data was recorded with the SOFTMAX software program. The average of 3 readings was taken for each blank, control, vehicle, and test concentration for statistical data manipulation.

Where [3] appears, read: Table 3, 100 μM H2O2 + catalase, 24 hr.
The mark [4] stands for this setting: Table 3, 100 μM H2O2 + heat inactivated catalase, 24 hr.
[5] abbreviates: Table 2, natural versus synthetic, 200 μg/mL, 24 hr.
The mark [6] stands for this setting: Table 1, procyanidins purified from cocoa, 200 μg/mL, 24 hrs.
Setting [7] is: Table 3, 200 μg/mL + 100 μM H2O2 + catalase, 24 hr.
Where [8] appears, read: Table 3, 200 μg/mL + 100 μM H2O2 + heat inactivated catalase, 24 hr.
The mark [9] stands for this setting: Table 3, 200 μg/mL + 100 μM H2O2, 24 hr.
The mark [10] stands for this setting: Table 3, 200 μg/mL + catalase, 24 hr.
Setting [11] is: Table 3, 200 μg/mL + heat inactivated catalase, 24 hr.

For `OO` [H2O2, hydrogen peroxide, reference compound], the “% G0/G1” value in series [1] (setting [3]) was determined as 35.20%; in series [1] (setting [4]) it was 20.27%; in series [1] (Table 3, 100 μM H2O2, 24 hr), 20.32%. Further, the “% G2/M” value in series [1] (setting [3]) worked out at 21.86%; in series [1] (setting [4]), 34.25%; in series [1] (Table 3, 100 μM H2O2, 24 hr), 34.76%. Besides, the “% S” value came to 42.93% in series [1] (setting [3]); 45.48% in series [1] (setting [4]); 44.92% in series [1] (Table 3, 100 μM H2O2, 24 hr). The “Effect of hydrogen peroxide on cell cycle, in words” value in series [1] (hydrogen peroxide at levels reported in the literature, see Table 3) is recorded as “shift in the cell cycle to G2/M with a decrease in G0/G1”.
On to `Oc1cc(O)c2c(c1)O[C@H](c1ccc(O)c(O)c1)[C@H](O)[C@H]2c1c(O)cc(O)c2c1O[C@H](c1ccc(O)c(O)c1)[C@H](O)[C@H]2c1c(O)cc(O)c2c1O[C@H](c1ccc(O)c(O)c1)[C@H](O)[C@H]2c1c(O)cc(O)c2c1O[C@H](c1ccc(O)c(O)c1)[C@H](O)[C@H]2c1c(O)cc(O)c2c1O[C@H](c1ccc(O)c(O)c1)[C@H](O)C2` [Natural pentamer, epicatechin (4β,8)4-pentamer], for which, in series [1] (setting [5]), the “% G0/G1” value worked out at 45.99%, the “% G2/M” value is recorded as 15.76% and the “% S” value is on record as 38.25%.
Turning to `Oc1cc(O)c2c(c1)O[C@H](c1ccc(O)c(O)c1)[C@H](O)[C@H]2c1c(O)cc(O)c2c1O[C@H](c1ccc(O)c(O)c1)[C@H](O)[C@H]2c1c(O)cc(O)c2c1O[C@H](c1ccc(O)c(O)c1)[C@H](O)[C@H]2c1c(O)cc(O)c2c1O[C@H](c1ccc(O)c(O)c1)[C@H](O)C2` [Natural tetramer, epicatechin (4β,8)3-tetramer], in series [1] (setting [6]), the “% G0/G1” value came to 51.46%, the “% G2/M” value is listed as 20.30% and the “% S” value was 28.25%. Moreover, in series [1] (setting [5]), the “% G0/G1” value is given as 36.82%, the “% G2/M” value is 19.02% and the “% S” value stood at 43.37%. Besides, in series [1], the “Effect on cell cycle (G0/G1 arrest), in words” value (“Effect on cell cycle” below) is “only a slight effect”.
`Oc1cc(O)c2c(c1)O[C@H](c1ccc(O)c(O)c1)[C@H](O)[C@H]2c1c(O)cc(O)c2c1O[C@H](c1ccc(O)c(O)c1)[C@H](O)[C@H]2c1c(O)cc(O)c2c1O[C@H](c1ccc(O)c(O)c1)[C@H](O)C2` [Natural trimer, epicatechin (4β,8)2-trimer]: in series [1] (setting [6]), the “% G0/G1” value is 43.22%, the “% G2/M” value is on record as 20.80% and the “% S” value was found to be 35.98%. Moreover, in series [1] (setting [5]), the “% G0/G1” value is given as 28.46%, the “% G2/M” value is 23.05% and the “% S” value is recorded as 48.49%. In addition, the “Effect on cell cycle” value in series [1] is given as “no effect”.
`Oc1cc(O)c2c(c1)O[C@H](c1ccc(O)c(O)c1)[C@H](O)[C@H]2c1c(O)cc(O)c2c1O[C@H](c1ccc(O)c(O)c1)[C@H](O)[C@H]2c1c(O)cc(O)c2c1O[C@H](c1ccc(O)c(O)c1)[C@H](O)[C@H]2c1c(O)cc(O)c2c1O[C@H](c1ccc(O)c(O)c1)[C@H](O)[C@H]2c1c(O)cc(O)c2c1O[C@H](c1ccc(O)c(O)c1)[C@H](O)C2` [Pentamers, epicatechin (4β,8)4-pentamer]: the “% G0/G1” value is 48.20% in series [1] (setting [7]); 39.47% in series [1] (setting [8]); 42.67% in series [1] (setting [9]); 41.23% in series [1] (setting [10]); 42.89% in series [1] (setting [11]); 44.94% in series [1] (Table 3, 200 μg/mL, 24 hr). Further, the “% G2/M” value in series [1] (setting [7]) is listed as 20.68%; in series [1] (setting [8]), 37.14%; in series [1] (setting [9]), 38.71%; in series [1] (setting [10]), 20.12%; in series [1] (setting [11]), 17.68%; in series [1] (Table 3, 200 μg/mL, 24 hr), 17.05%. Moreover, the “% S” value in series [1] (setting [7]) is 31.12%; in series [1] (setting [8]), 23.39%; in series [1] (setting [9]), 18.63%; in series [1] (setting [10]) it was 39.65%; in series [1] (setting [11]), 39.43%; in series [1] (Table 3, 200 μg/mL, 24 hr), 38.01%. For the same compound, the “Effect on cell cycle” value in series [1] is “caused a G0/G1 arrest”. For the same compound, in series [2] (purified from cocoa polyphenol extracts or prepared synthetically), the “Cytotoxicity to human breast cancer cell lines” value is “cytotoxicity to human breast cancer cell lines”.
As for `Oc1cc(O)c2c(c1)O[C@H](c1ccc(O)c(O)c1)[C@H](O)[C@H]2c1c(O)cc(O)c2c1O[C@H](c1ccc(O)c(O)c1)[C@H](O)[C@H]2c1c(O)cc(O)c2c1O[C@H](c1ccc(O)c(O)c1)[C@H](O)[C@H]2c1c(O)cc(O)c2c1O[C@H](c1ccc(O)c(O)c1)[C@H](O)[C@H]2c1c(O)cc(O)c2c1O[C@H](c1ccc(O)c(O)c1)[C@H](O)C2` [Synthetic pentamer, epicatechin (4β,8)4-pentamer], in series [1] (200 μg/mL, 24 hr), the “Increase in G0/G1 arrest, synthetic compared to natural procyanidin” value (from here on “Increase in G0/G1 arrest, synthetic”) is “approximately 30%”. In series [1] (setting [5]), the “% G0/G1” value is listed as 64.15%, the “% G2/M” value was found to be 12.49% and the “% S” value came out at 23.36%. Also, the Cell growth inhibition entry in series [2] (several breast cancer cell lines) is on record as “inhibited cell growth”.
`Oc1cc(O)c2c(c1)O[C@H](c1ccc(O)c(O)c1)[C@H](O)[C@H]2c1c(O)cc(O)c2c1O[C@H](c1ccc(O)c(O)c1)[C@H](O)[C@H]2c1c(O)cc(O)c2c1O[C@H](c1ccc(O)c(O)c1)[C@H](O)[C@H]2c1c(O)cc(O)c2c1O[C@H](c1ccc(O)c(O)c1)[C@H](O)C2` [Synthetic tetramer, epicatechin (4β,8)3-tetramer]: the “Increase in G0/G1 arrest, synthetic” value in series [1] (200 μg/mL, 24 hr) is given as “approximately 15%”. Besides, in series [1] (setting [5]), the “% G0/G1” value was 43.49%, the “% G2/M” value is 17.03% and the “% S” value is on record as 39.39%.
Regarding `Oc1cc(O)c2c(c1)O[C@H](c1ccc(O)c(O)c1)[C@H](O)[C@H]2c1c(O)cc(O)c2c1O[C@H](c1ccc(O)c(O)c1)[C@H](O)[C@H]2c1c(O)cc(O)c2c1O[C@H](c1ccc(O)c(O)c1)[C@H](O)C2` [Synthetic trimer, epicatechin (4β,8)2-trimer], the “Increase in G0/G1 arrest, synthetic” value in series [1] (200 μg/mL, 24 hr) was “No difference in activity”. Also, in series [1] (setting [5]), the “% G0/G1” value turned out to be 26.98%, the “% G2/M” value is listed as 23.45% and the “% S” value is on record as 49.57%.

For the origin of these results see US7244855B2, “Synthesis of oligomeric epicatechin and catechin-derived procyanidins” (Mars, Inc., priority 2002, dated 2007).
